Measurements from ChEMBL document CHEMBL1123813, “Chemistry and inhibitory activity of long chain fatty acid oxidation of emeriamine and its analogues” (J Med Chem, 1987).

How the values were obtained:
[1] = species: Rattus norvegicus; experiment: Inhibition of carnitine-dependent oxidation of [1-14C]palmitate to 14CO2 in rat liver mitochondria was measured in vitro at 2 mM concentration
[2] = species: Rattus norvegicus; experiment: Inhibition of carnitine-dependent oxidation of [1-14C]palmitate to 14CO2 in rat liver mitochondria was measured in vitro at 2*10e-3 mM concentration; format: functional
[3] = species: Rattus norvegicus; experiment: Inhibition of carnitine-dependent oxidation of [1-14C]palmitate to 14CO2 in rat liver mitochondria was measured in vitro at 2*10e-2 mM concentration; format: functional
[4] = species: Rattus norvegicus; experiment: Inhibition of carnitine-dependent oxidation of [1-14C]palmitate to 14CO2 in rat liver mitochondria was measured in vitro at 2*10e-1 mM concentration; format: functional

Row | Compound | inhibition [1] [%] | inhibition [2] [%] | inhibition [3] [%] | inhibition [4] [%]
1 | CCC(=O)NC(CC(=O)[O-])C[N+](C)(C)C (stereo not drawn) | 44 | – | – | –
2 | C[N+](C)(C)C[C@H](N)CC(=O)[O-] | – | 59 | 90 | –
3 | C[N+](C)(C)CC(N)CC(N)=O (stereo not drawn) | – | 10 | 27 | –
4 | Cc1ccc(S(=O)(=O)NC(CC(=O)[O-])C[N+](C)(C)C)cc1 (stereo not drawn) | 100 | – | – | 84
5 | CCCCCCCCCCCCCC(=O)NC(CC(=O)[O-])C[N+](C)(C)C (stereo not drawn) | – | 100 | 100 | –
6 | COC(=O)NC(CC(=O)[O-])C[N+](C)(C)C (stereo not drawn) | 0 | – | – | 0
7 | COC(=O)CC(N)C[N+](C)(C)C (stereo not drawn) | – | 26 | 73 | –
8 | C[N+](C)(C)CC(CC(=O)[O-])NC(=O)OCc1ccccc1 (stereo not drawn) | 98 | – | – | 85
9 | CCCCCCCCCCCCCCCC(=O)NC(CC(=O)[O-])C[N+](C)(C)C (stereo not drawn) | – | 100 | 100 | –
10 | CCOC(=O)CC(N)C[N+](C)(C)C (stereo not drawn) | – | 37 | 85 | –
11 | CC(=O)NC(CC(=O)[O-])C[N+](C)(C)C (stereo not drawn) | 38 | – | – | 6
12 | CCCC(=O)NC(CC(=O)[O-])C[N+](C)(C)C (stereo not drawn) | 50 | – | – | –
13 | C[N+](C)(C)CC(CC(=O)[O-])NC(N)=O (stereo not drawn) | 72 | – | – | 84
14 | CNC(CC(=O)[O-])C[N+](C)(C)C (stereo not drawn) | 100 | – | – | 89
15 | C[N+](C)(C)C[C@@H](CC(=O)[O-])NC=O | 84 | – | – | 53
